The text below walks through data of patent publication US10597391B2, “Urea-containing isoxazole derivatives as FXR agonists and methods of use thereof” (Enanta Pharmaceuticals, Inc., priority 2016, dated 2020).

Molecules are shown by their SMILES. Read-outs that look alike come from different tables or passages of the source. A value given as a limit tells only on which side of the number the result lay.

The target in the assay is T1, human FXR (NR1H4) (Homo sapiens, UniProt Q96RI1).
T1 sequence (Q96RI1 1-486): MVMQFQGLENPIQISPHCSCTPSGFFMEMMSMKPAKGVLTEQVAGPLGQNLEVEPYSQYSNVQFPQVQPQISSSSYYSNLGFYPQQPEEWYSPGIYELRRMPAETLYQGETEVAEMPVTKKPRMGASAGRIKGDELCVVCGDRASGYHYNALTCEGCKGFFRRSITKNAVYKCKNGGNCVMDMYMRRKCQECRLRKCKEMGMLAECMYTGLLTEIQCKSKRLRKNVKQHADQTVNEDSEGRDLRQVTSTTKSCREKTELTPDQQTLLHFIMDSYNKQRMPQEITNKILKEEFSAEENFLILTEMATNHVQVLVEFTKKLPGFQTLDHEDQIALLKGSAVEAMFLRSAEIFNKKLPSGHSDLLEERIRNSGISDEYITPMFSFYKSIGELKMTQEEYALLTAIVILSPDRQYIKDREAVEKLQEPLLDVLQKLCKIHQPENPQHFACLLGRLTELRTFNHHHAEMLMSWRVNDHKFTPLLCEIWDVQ
The assay is described as follows: Human FXR (NR1H4) Assay: Gal4 promoter driven luciferase reporter transactivation in CHO cells (Indigo Bioscience kit IB00601). Format: cell-based. Conditions: for Emax: CHO, read-out: Efficacy (%); for EC50: Human FXR (NR1H4) reporter assay in CHO cells. The essentials:
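CHO reporter cells expressing human NR1H4 with luciferase driven by an FXR-responsive promoter (Gal4 system), run per manufacturer's kit. Compounds applied to plated cells, then incubated a further 22 hours at 37° C. Luciferase luminescence read after detection reagent as a surrogate of FXR activation, giving potency and efficacy.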

The mark [1] stands for this setting: efficacy normalized to CDCA set as 100%.

Usually EC50 stands for the concentration that produces a half-maximal response. As to `O=C(O)c1ccnc(NC(=O)N2C3CCC2CC(OCc2c(-c4ccccc4OC(F)(F)F)noc2C2CC2)C3)c1` (centres unmarked) [Example 770], the Emax under setting [1] amounted to 93%. For the same molecule, under “potency range, read-out: EC50”, the EC50 is greater than 1000 nM.
Regarding `O=C(O)c1cccc(NC(=O)N2C3CCC2CC(OCc2c(-c4ccccc4OC(F)(F)F)noc2C2CC2)C3)n1` (centres unmarked) [Example 771], under setting [1], the Emax is 54%. The EC50 (potency range, read-out: EC50) is greater than 1000 nM.
The like results for `O=C(O)c1cccnc1NC(=O)N1C2CCC1CC(OCc1c(-c3ccccc3OC(F)(F)F)noc1C1CC1)C2` (centres unmarked) [Example 772] were, in that order, 31% and greater than 1000 nM.
On to `O=C(Nc1cccc(-c2ccccc2)c1)N1C2CCC1CC(NCc1c(-c3c(Cl)cccc3Cl)noc1C1CC1)C2` (centres unmarked) [Example 773], for which the Emax came out at 135%. In addition, the EC50 (EC50, potency range) was in the range of 10 to 100 nM.
Consider `COC(=O)c1ccc(NC(=O)N2C3CCC2CC(OCc2c(-c4c(Cl)cccc4Cl)noc2C2CC2)C3)cc1-c1cnn(C)c1` (centres unmarked) [Example 774], for which the Emax under setting [1] was found to be 102%. Also, the EC50 (potency range, read-out: EC50) was less than 10 nM.
In the same order, the values of `CCOC(=O)c1cnc2ccc(NC(=O)N3C4CCC3CC(OCc3c(-c5c(Cl)cccc5Cl)noc3C3CC3)C4)cc2c1` (centres unmarked) [Example 775] are 82% and less than 10 nM.
As to `Cn1cc(-c2cc(NC(=O)N3C4CCC3CC(OCc3c(-c5c(Cl)cccc5Cl)noc3C3CC3)C4)ccc2C(=O)O)cn1` (centres unmarked) [Example 776], the Emax under setting [1] came to 11%. Besides, the EC50 (potency range, read-out: EC50) is 100 to 1000 nM.
The like results for `CCOC(=O)c1ccc(NC(=O)N2C3CCC2CC(OCc2c(-c4c(Cl)cccc4Cl)noc2C2CC2)C3)cc1-c1cncnc1` (centres unmarked) [Example 778] were, in that order, 248% and less than 10 nM.
In the same order, the values of `O=C(O)c1cnc2cc(NC(=O)N3C4CCC3CC(OCc3c(-c5c(Cl)cccc5Cl)noc3C3CC3)C4)ccc2c1` (centres unmarked) [Example 779] are 50% and 10 to 100 nM.
In the same order, the values of `O=C(NCCS(=O)(=O)O)c1ccc(NC(=O)N2C3CCC2CC(OCc2c(-c4c(Cl)cccc4Cl)noc2C2CC2)C3)c(F)c1` (centres unmarked) [Example 780] are 0% and 100 to 1000 nM.
In the case of `COC(=O)CNC(=O)c1ccc(NC(=O)N2C3CCC2CC(OCc2c(-c4c(Cl)cccc4Cl)noc2C2CC2)C3)c(F)c1` (centres unmarked) [Example 781], the Emax under setting [1] worked out at 100%. The EC50 (potency range, read-out: EC50) was 10 to 100 nM.
The like results for `O=C(O)c1ccc(NC(=O)N2C3CCC2CC(OCc2c(-c4c(Cl)cccc4Cl)noc2C2CC2)C3)cc1-c1cncnc1` (centres unmarked) [Example 782] were, in that order, 20% and 10 to 100 nM.
The like results for `O=C(O)CNC(=O)c1ccc(NC(=O)N2C3CCC2CC(OCc2c(-c4c(Cl)cccc4Cl)noc2C2CC2)C3)c(F)c1` (centres unmarked) [Example 783] were, in that order, 0% and 100 to 1000 nM.
In the same order, the values of `COC(=O)c1ccc(NC(=O)N2C3CCC2CC(OCc2c(-c4c(Cl)cccc4Cl)noc2C2CC2)C3)cc1-c1ccc(OC)nc1` (centres unmarked) [Example 784] are 102% and less than 10 nM.
In the case of `COC(=O)c1ccc2nc(NC(=O)N3C4CCC3CC(OCc3c(-c5c(Cl)cccc5Cl)noc3C3CC3)C4)ccc2c1` (centres unmarked) [Example 785], the Emax under setting [1] stood at 46%. Moreover, the EC50 (potency range, read-out: EC50) lay within 10 to 100 nM.
In the same order, the values of `COC(=O)c1ccc(NC(=O)N2C3CCC2CC(OCc2c(-c4c(Cl)cccc4Cl)noc2C2CC2)C3)nc1` (centres unmarked) [Example 786] are 44% and 10 to 100 nM.
The like results for `COc1ccc(-c2cc(NC(=O)N3C4CCC3CC(OCc3c(-c5c(Cl)cccc5Cl)noc3C3CC3)C4)ccc2C(=O)O)cn1` (centres unmarked) [Example 787] were, in that order, 97% and less than 10 nM.
The like results for `O=C(O)c1ccc(NC(=O)N2C3CCC2CC(OCc2c(-c4c(Cl)cccc4Cl)noc2C2CC2)C3)nc1` (centres unmarked) [Example 788] were, in that order, 31% and 10 to 100 nM.
For `O=C(O)c1ccc2nc(NC(=O)N3C4CCC3CC(OCc3c(-c5c(Cl)cccc5Cl)noc3C3CC3)C4)ccc2c1` (centres unmarked) [Example 789], the Emax under setting [1] was determined as 57%. In addition, the EC50 (potency range, read-out: EC50) is 10 to 100 nM.
The like results for `CC1(S(=O)(=O)NC(=O)c2ccc(NC(=O)N3C4CCC3CC(OCc3c(-c5c(Cl)cccc5Cl)noc3C3CC3)C4)cc2-c2cncnc2)CC1` (centres unmarked) [Example 790] were, in that order, 49% and 10 to 100 nM.
The like results for `CC1(S(=O)(=O)NC(=O)c2cnc3ccc(NC(=O)N4C5CCC4CC(OCc4c(-c6c(Cl)cccc6Cl)noc4C4CC4)C5)cc3c2)CC1` (centres unmarked) [Example 791] were, in that order, 11% and 100 to 1000 nM.
The like results for `COC(=O)c1cc(OC)c(NC(=O)N2C3CCC2CC(OCc2c(-c4c(Cl)cccc4Cl)noc2C2CC2)C3)cc1-c1ccccc1` (centres unmarked) [Example 792] were, in that order, 92% and less than 10 nM.
Regarding `COc1cc(C(=O)O)c(-c2ccccc2)cc1NC(=O)N1C2CCC1CC(OCc1c(-c3c(Cl)cccc3Cl)noc1C1CC1)C2` (centres unmarked) [Example 793], under setting [1], the Emax is 99%. Also, where the note is “potency range, read-out: EC50”, the EC50 is less than 10 nM.
The like results for `COC(=O)c1cc(F)c(NC(=O)N2C3CCC2CC(OCc2c(-c4c(Cl)cccc4Cl)noc2C2CC2)C3)cc1-c1ccccc1` (centres unmarked) [Example 794] were, in that order, 80% and less than 10 nM.
In the same order, the values of `COC(=O)c1ccc(NC(=O)N2C3CCC2CC(OCc2c(-c4c(Cl)cccc4Cl)noc2C2CC2)C3)c(F)c1-c1ccccc1` (centres unmarked) [Example 795] are 44% and 10 to 100 nM.
The like results for `COC(=O)c1ccc(NC(=O)N2C3CCC2CC(OCc2c(-c4c(Cl)cccc4Cl)noc2C2CC2)C3)cc1-c1ccc(C(F)(F)F)nc1` (centres unmarked) [Example 796] were, in that order, 95% and less than 10 nM.
As to `O=C(O)c1cc(F)c(NC(=O)N2C3CCC2CC(OCc2c(-c4c(Cl)cccc4Cl)noc2C2CC2)C3)cc1-c1ccccc1` (centres unmarked) [Example 797], the Emax under setting [1] was determined as 129%. The EC50 (potency range, read-out: EC50) is less than 10 nM.
In the same order, the values of `O=C(O)c1ccc(NC(=O)N2C3CCC2CC(OCc2c(-c4c(Cl)cccc4Cl)noc2C2CC2)C3)c(F)c1-c1ccccc1` (centres unmarked) [Example 798] are 124% and 10 to 100 nM.
The like results for `O=C(O)c1ccc(NC(=O)N2C3CCC2CC(OCc2c(-c4c(Cl)cccc4Cl)noc2C2CC2)C3)cc1-c1ccc(C(F)(F)F)nc1` (centres unmarked) [Example 799] were, in that order, 133% and less than 10 nM.
The like results for `COC(=O)c1ccc(NC(=O)N2C3CCC2CC(OCc2c(-c4c(Cl)cccc4Cl)noc2C2CC2)C3)c(C2CC2)c1` (centres unmarked) [Example 800] were, in that order, 54% and 10 to 100 nM.
In the case of `O=C(O)c1ccc(NC(=O)N2C3CCC2CC(OCc2c(-c4c(Cl)cccc4Cl)noc2C2CC2)C3)c(C2CC2)c1` (centres unmarked) [Example 801], the Emax under setting [1] was determined as 70%. Moreover, the EC50 (potency range, read-out: EC50) lay in the range of 10 to 100 nM.
The like results for `COC(=O)c1ccc(NC(=O)N2C3CCC2CC(OCc2c(-c4c(Cl)cccc4Cl)noc2C2CC2)C3)c(C#N)c1` (centres unmarked) [Example 802] were, in that order, 28% and 100 to 1000 nM.
Consider `CCOC(=O)c1ccc2nc(NC(=O)N3C4CCC3CC(OCc3c(-c5c(Cl)cccc5Cl)noc3C3CC3)C4)sc2c1` (centres unmarked) [Example 804], for which, under setting [1], the Emax is 90%. In addition, where the note is “potency range, read-out: EC50”, the EC50 fell in the range of 10 to 100 nM.
`O=C(O)c1ccc2nc(NC(=O)N3C4CCC3CC(OCc3c(-c5c(Cl)cccc5Cl)noc3C3CC3)C4)sc2c1` (centres unmarked) [Example 805]: the Emax under setting [1] came to 104%. In addition, the EC50 (potency range, read-out: EC50) fell in the range of 10 to 100 nM.
